Laboratory results as given in the NIST ThermoML archive (doi:10.1016/j.jct.2012.03.008).
Numbers after ± are expanded uncertainties.

Details: Pendant drop shape

Compound: CCCC[n+]1ccn(C)c1.O=S(=O)([N-]S(=O)(=O)C(F)(F)F)C(F)(F)F
- surface tension liquid-gas (298.2 K): 33.35 ± 0.38 mN/m
- surface tension liquid-gas (308.2 K): 32.85 ± 0.37 mN/m
- surface tension liquid-gas (318.2 K): 32.25 ± 0.37 mN/m
- surface tension liquid-gas (328.2 K): 31.69 ± 0.36 mN/m
- surface tension liquid-gas (338.2 K): 31.14 ± 0.35 mN/m
- surface tension liquid-gas (343.2 K): 30.76 ± 0.35 mN/m

Compound: CCCCn1cc[n+](C)c1.F[P-](F)(F)(F)(F)F [1-butyl-3-methylimidazolium hexafluorophosphate]
- surface tension liquid-gas (298.1 K): 43.81 ± 0.47 mN/m
- surface tension liquid-gas (303.2 K): 43.44 ± 0.47 mN/m
- surface tension liquid-gas (313.1 K): 42.72 ± 0.46 mN/m
- surface tension liquid-gas (323.1 K): 42.19 ± 0.46 mN/m
- surface tension liquid-gas (333.1 K): 41.61 ± 0.45 mN/m
- surface tension liquid-gas (343.7 K): 41.07 ± 0.45 mN/m

Compound: CCCCn1cc[n+](C)c1.F[B-](F)(F)F [1-butyl-3-methylimidazolium tetrafluoroborate]
- surface tension liquid-gas (298 K): 45.44 ± 0.49 mN/m
- surface tension liquid-gas (307.9 K): 44.57 ± 0.48 mN/m
- surface tension liquid-gas (317.9 K): 43.91 ± 0.47 mN/m
- surface tension liquid-gas (328.4 K): 43.15 ± 0.47 mN/m
- surface tension liquid-gas (338.4 K): 42.49 ± 0.46 mN/m
- surface tension liquid-gas (343.1 K): 42.17 ± 0.46 mN/m

Compound: CCCCn1cc[n+](C)c1.O=S(=O)([O-])C(F)(F)F [1-butyl-3-methylimidazolium trifluoromethanesulfonate]
- surface tension liquid-gas (298.1 K): 35.86 ± 0.4 mN/m
- surface tension liquid-gas (307.9 K): 35.29 ± 0.4 mN/m
- surface tension liquid-gas (318 K): 34.95 ± 0.4 mN/m
- surface tension liquid-gas (328.1 K): 34.64 ± 0.41 mN/m
- surface tension liquid-gas (338.3 K): 34.3 ± 0.38 mN/m

Compound: CCn1cc[n+](C)c1.Cc1ccc(S(=O)(=O)[O-])cc1 [1-ethyl-3-methylimidazolium 4-methylbenzenesulfonate]
- surface tension liquid-gas (308.1 K): 45.2 ± 0.6 mN/m
- surface tension liquid-gas (318 K): 44.2 ± 0.6 mN/m
- surface tension liquid-gas (328.5 K): 43.6 ± 0.6 mN/m
- surface tension liquid-gas (338.3 K): 43 ± 0.6 mN/m
- surface tension liquid-gas (343.2 K): 42.7 ± 0.6 mN/m

Compound: CC(=O)[O-].CCn1cc[n+](C)c1 [1-ethyl-3-methylimidazolium acetate]
- surface tension liquid-gas (298.1 K): 47.06 ± 0.5 mN/m
- surface tension liquid-gas (308.2 K): 46.53 ± 0.5 mN/m
- surface tension liquid-gas (318.2 K): 45.89 ± 0.49 mN/m
- surface tension liquid-gas (328.2 K): 45.33 ± 0.48 mN/m
- surface tension liquid-gas (338.3 K): 44.74 ± 0.48 mN/m

Compound: CCn1cc[n+](C)c1.N#CN=C=[N-] [1-ethyl-3-methylimidazolium dicyanamide]
- surface tension liquid-gas (298.3 K): 57.5 ± 0.8 mN/m
- surface tension liquid-gas (308.2 K): 56.6 ± 1 mN/m
- surface tension liquid-gas (318.3 K): 56.4 ± 0.8 mN/m
- surface tension liquid-gas (328.2 K): 56 ± 0.7 mN/m
- surface tension liquid-gas (338.5 K): 55 ± 0.8 mN/m
- surface tension liquid-gas (343.4 K): 54.9 ± 0.8 mN/m

Compound: CCn1cc[n+](C)c1.COP(=O)([O-])OC [1-ethyl-3-methylimidazolium dimethylphosphate]
- surface tension liquid-gas (308.2 K): 45.3 ± 0.9 mN/m
- surface tension liquid-gas (318 K): 44.7 ± 0.8 mN/m
- surface tension liquid-gas (328.7 K): 44.4 ± 0.7 mN/m
- surface tension liquid-gas (338.6 K): 43.8 ± 0.7 mN/m
- surface tension liquid-gas (343.5 K): 43.3 ± 0.6 mN/m

Compound: CCn1cc[n+](C)c1.CS(=O)(=O)[O-] [1-ethyl-3-methylimidazolium methanesulfonate]
- surface tension liquid-gas (298.5 K): 50.9 ± 0.8 mN/m
- surface tension liquid-gas (308 K): 50.3 ± 0.8 mN/m
- surface tension liquid-gas (317.9 K): 49.7 ± 0.8 mN/m
- surface tension liquid-gas (328.1 K): 49.1 ± 0.8 mN/m
- surface tension liquid-gas (338.1 K): 48.1 ± 0.6 mN/m
- surface tension liquid-gas (342.7 K): 47.7 ± 0.6 mN/m

Compound: CCn1cc[n+](C)c1.CO[PH](=O)[O-] [1-ethyl-3-methylimidazolium methyl phosphonate]
- surface tension liquid-gas (298.2 K): 49 ± 0.6 mN/m
- surface tension liquid-gas (308.4 K): 48.3 ± 0.6 mN/m
- surface tension liquid-gas (318 K): 47.9 ± 0.8 mN/m
- surface tension liquid-gas (328.6 K): 47.2 ± 0.6 mN/m
- surface tension liquid-gas (338.5 K): 46.7 ± 0.6 mN/m
- surface tension liquid-gas (343.1 K): 46.3 ± 0.5 mN/m

Compound: CCn1cc[n+](C)c1.N#C[S-] [1-ethyl-3-methylimidazolium thiocyanate]
- surface tension liquid-gas (298.2 K): 53.3 ± 1 mN/m
- surface tension liquid-gas (308.2 K): 52.3 ± 1 mN/m
- surface tension liquid-gas (318.2 K): 51.8 ± 0.9 mN/m
- surface tension liquid-gas (328.2 K): 50.5 ± 0.8 mN/m
- surface tension liquid-gas (338.3 K): 49.8 ± 1.1 mN/m
- surface tension liquid-gas (343.2 K): 49.4 ± 0.8 mN/m

Compound: CCn1cc[n+](C)c1.O=S(=O)([O-])C(F)(F)F [1-ethyl-3-methylimidazolium trifluoromethanesulfonate]
- surface tension liquid-gas (298.2 K): 41.3 ± 0.5 mN/m
- surface tension liquid-gas (308.1 K): 41 ± 0.45 mN/m
- surface tension liquid-gas (318.1 K): 40.48 ± 0.44 mN/m
- surface tension liquid-gas (328.4 K): 39.9 ± 0.7 mN/m
- surface tension liquid-gas (338.3 K): 39.5 ± 0.7 mN/m
- surface tension liquid-gas (344.9 K): 39.3 ± 0.43 mN/m
